Paper PMC7497403, “Development of Potent PfCLK3 Inhibitors Based on TCMDC-135051 as a New Class of Antimalarials” (Journal of Medicinal Chemistry, 2020)

Assays:
[1] = tested on: P. falciparum 3D7; test: Parasite growth inhibition (Sybr Green I) in 3D7 parasites; assay type: cell-based; settings: for fold decrease in parasite growth inhibition: 3D7 parasites, relative to TCMDC-135051 (1); for 3D7 ED50: Table 2, asexual 3D7 P. falciparum; for EC50: Plasmodium falciparum, asexual 3D7 (chloroquine-sensitive) P. falciparum, ± SEM, n = 3, read-out: 3D7 pEC50 (converted)
[2] = Microsomal stability; assay type: in vitro ADME; settings: mouse liver microsomes; 1 μM compound
Method: Compounds were incubated at 37 °C at a concentration of 1 μM with CD1 mouse liver microsomes (GIBCO, Thermo Fisher Scientific) in a suspension of 50 mM potassium phosphate buffer (pH 7.4) with a final protein concentration of 0.5 mg/mL. The reaction was started by the addition of excess NADPH and then quenched at several time points starting from time 0, then at 3, 6, 9, 15, and 30 min addition of acetonitrile to an aliquot of the sample. An internal standard was added to each sample before centrifugation to remove any precipitates before monitoring loss of parent compound by HPLC analysis using Shimadzu LC-20A (Shimadzu, UK). Prism (Graphpad, USA) was used to fit an exponential decay for substrate depletion and subsequently rate constant (k) from the peak area of the parent compound to the internal standard at each time point.

[3] = biological target: T1, full-length PfCLK3 recombinant protein (Plasmodium falciparum, UniProt Q8IIL5); test: TR-FRET PfCLK3 in vitro kinase assay; assay type: biochemical, P. falciparum; settings: for IC50: TR-FRET, full-length recombinant PfCLK3, ± SEM, n = 3, read-out: PfCLK3 pIC50 (converted)
T1 sequence (Q8IIL5 1-699): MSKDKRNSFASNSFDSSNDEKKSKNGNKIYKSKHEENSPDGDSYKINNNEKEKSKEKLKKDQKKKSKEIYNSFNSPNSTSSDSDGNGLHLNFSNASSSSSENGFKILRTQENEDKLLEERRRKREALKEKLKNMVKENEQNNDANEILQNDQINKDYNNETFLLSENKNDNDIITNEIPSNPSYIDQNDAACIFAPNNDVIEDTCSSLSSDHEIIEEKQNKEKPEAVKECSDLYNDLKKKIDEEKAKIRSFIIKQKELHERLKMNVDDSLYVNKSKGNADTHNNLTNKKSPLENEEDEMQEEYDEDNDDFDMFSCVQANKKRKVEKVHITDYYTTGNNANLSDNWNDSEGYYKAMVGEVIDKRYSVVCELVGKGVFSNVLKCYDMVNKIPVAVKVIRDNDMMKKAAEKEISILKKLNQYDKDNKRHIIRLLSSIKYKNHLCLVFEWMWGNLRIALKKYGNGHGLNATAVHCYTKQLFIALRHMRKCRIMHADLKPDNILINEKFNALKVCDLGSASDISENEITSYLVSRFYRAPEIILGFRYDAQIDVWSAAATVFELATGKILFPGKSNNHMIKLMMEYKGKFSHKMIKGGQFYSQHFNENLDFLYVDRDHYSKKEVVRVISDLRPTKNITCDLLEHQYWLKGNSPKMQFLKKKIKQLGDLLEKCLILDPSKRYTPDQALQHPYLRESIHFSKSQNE
Method: First, in a 10 μL reaction volume, 5 μL of twice the required enzyme concentration (50 nM) and 2.5 μL of four times the required substrate concentration mix containing cold ATP, and the serially diluted drugs were mixed in a black 384-plate well plate and incubated at 37 °C for 1 h. The reaction was stopped after incubation by adding the stopping/detection solution (containing 30 mM EDTA in 1× Lance detection buffer and 3 nM Europium-labeled antiphospho-specific antibody) and incubated for another hour at RT before phosphorylation signals were measured using the ClarioStar.
For each test compound, percent inhibition (response) which was calculated using the formula: [drawing 3] was plotted against the log molar concentration of compound to calculate the IC50 (potency) of each inhibitor molecule and plotted using GraphPad prism software. All experiments were carried out in triplicates, and the data presented were the standard error of the mean (SEM) of three independent experiments run in triplicates.
PfCLK3 phosphorylation of substrate results in the Europium-labeled antiphospho-specific antibody recognizing the phosphorylated site on the substrate. The Europium donor fluorophore is excited at 320 or 340 nm, and energy is transferred to the ULight acceptor dye on the substrate, which finally results in the emission of light at 665 nm. The level of ULight peptide phosphorylation correlates with the intensity of the emission. For normalization, a no kinase and a no inhibitor reaction wells were included, and all experiments were conducted in triplicates. Drug dilutions, protein concentrations, and incubation times were the same for easy comparison of results.

[4] = tested on: P. falciparum clinical field isolates from The Gambia; test: Parasite reduction rate (PRR) assay with clinical isolates; assay type: cell-based; settings: all isolates except GB0020, GB002 and GB0026; at EC50 concentration (18 nM)

| SMILES | fold decrease in parasite growth inhibition [1] [fold] | clint (in vitro intrinsic clearance) [2] [mL/min/g liver] | IC50 [3] [nM] | also measured |
| --- | --- | --- | --- | --- |
| CCN(CC)Cc1ccc(OC)c(-c2cc3c(-c4ccc(C(=O)O)c(C)c4)ccnc3[nH]2)c1 [analogue 28, 4-(2-(5-((Diethylamino)methyl)-2-methoxyphenyl)-1H-pyrrolo[2,3-b]pyridin-4-yl)-2-methylbenzoic Acid] | 6 | 1.33 |  | 3D7 ED50 [1]: 1185 nM |
| CCN(CC)Cc1ccc(OC)c(-c2cc3c(-c4ccc(C(=O)O)cc4)ccnc3[nH]2)c1 [analogue 29, 4-(2-(5-((Diethylamino)methyl)-2-methoxyphenyl)-1H-pyrrolo[2,3-b]pyridin-4-yl)benzoic Acid] | 16 | 11.01 | 31.6 | 3D7 ED50 [1]: 3272 nM |
| COc1ccc(CN)cc1-c1cc2c(-c3ccc(C(=O)O)c(C(C)C)c3)ccnc2[nH]1 [analogue 12, 4-{2-[5-(Aminomethyl)-2-methoxyphenyl]-1H-pyrrolo[2,3-b]pyridin-4-yl}-2-(propan-2-yl)benzoic Acid] |  | 2.92 |  | fold less potent in vitro (PfCLK3) ([3]; relative to TCMDC-135051 (1)): 2 fold |
| COc1ccc(CN2CCCC2)cc1-c1cc2c(-c3ccc(C(=O)O)c(C(C)C)c3)ccnc2[nH]1 [analogue 8b, 4-(2-{2-Methoxy-5-[(pyrrolidin-1-yl)methyl]phenyl}-1H-pyrrolo[2,3-b]pyridin-4-yl)-2-(propan-2-yl)benzoic Acid] | 2 | 1.94 |  |  |
| COc1ccccc1-c1cc2c(-c3ccc(C(=O)O)c(C(C)C)c3)ccnc2[nH]1 [analogue 15, 4-[2-(2-Methoxyphenyl)-1H-pyrrolo[2,3-b]pyridin-4-yl]-2-(propan-2-yl)benzoic Acid] | 7 | 2.54 |  |  |
| COc1ccc(CN(C)C)cc1-c1cc2c(-c3ccc(C(=O)O)c(C(C)C)c3)ccnc2[nH]1 [analogue 8a, 4-(2-{5-[(Dimethylamino)methyl]-2-methoxyphenyl}-1H-pyrrolo[2,3-b]pyridin-4-yl)-2-(propan-2-yl)benzoic Acid] | 2 | 2.53 | 31.6 | EC50 [1]: 501 nM |
| CCN(CC)Cc1cccc(-c2cc3c(-c4ccc(C(=O)O)c(C(C)C)c4)ccnc3[nH]2)c1 [analogue 23, 4-(2-{3-[(Diethylamino)methyl]phenyl}-1H-pyrrolo[2,3-b]pyridin-4-yl)-2-(propan-2-yl)benzoic Acid] | 1.5 | 0.85 |  |  |
| CCN(CC)Cc1cccc(-c2cc3c(-c4ccc(C(=O)O)c(C(C)C)c4)ccnc3[nH]2)c1OC [analogue 27, 4-(2-(3-((Diethylamino)methyl)-2-methoxyphenyl)-1H-pyrrolo[2,3-b]pyridin-4-yl)-2-isopropylbenzoic Acid] | 15 | 1.65 | 20 | fold increase in in vitro kinase activity (PfCLK3) ([3]; relative to TCMDC-135051 (1)): 2 fold |
| CCN(CC)Cc1ccc(OC)c(-c2cc3c(-c4cccc(C(C)C)c4)ccnc3[nH]2)c1 [analogue 31, N-Ethyl-N-(3-(4-(3-isopropylphenyl)-1H-pyrrolo[2,3-b]pyridin-2-yl)-4-methoxybenzyl)ethanamine] |  | 9.54 | 1000 |  |
| CCN(CC)Cc1ccc(O)c(-c2cc3c(-c4ccc(C(=O)O)c(C(C)C)c4)ccnc3[nH]2)c1 [analogue 19, 4-(2-(5-((Diethylamino)methyl)-2-hydroxyphenyl)-1H-pyrrolo[2,3-b]pyridin-4-yl)-2-isopropylbenzoic Acid] |  | 1.94 | 20 | EC50 [1]: 3160 nM |
| CCOC(=O)c1ccc(-c2ccnc3[nH]c(-c4cc(CN(CC)CC)ccc4OC)cc23)cc1C(C)C [analogue 9, Ethyl 4-(2-(5-((Diethylamino)methyl)-2-methoxyphenyl)-1H-pyrrolo[2,3-b]pyridin-4-yl)-2-isopropylbenzoate] |  | 16.06 |  |  |
| CCc1nc(N)nc(N)c1-c1ccc(Cl)cc1 [pyrimethamine, reference compound] |  |  |  | reduction in parasitemia (PRR) [4]: at least 70% |
| COc1ccc(CN2CCOCC2)cc1-c1cc2c(-c3ccc(C(=O)O)c(C(C)C)c3)ccnc2[nH]1 [analogue 8c, 4-(2-{2-Methoxy-5-[(morpholin-4-yl)methyl]phenyl}-1H-pyrrolo[2,3-b]pyridin-4-yl)-2-(propan-2-yl)benzoic Acid] |  | 1.60 | 10 |  |
| CCN(CC)Cc1ccc(OC)c(-c2cc3c(-c4ccc(-c5nnn[nH]5)c(C(C)C)c4)ccnc3[nH]2)c1 [analogue 30, N-Ethyl-N-(3-(4-(3-isopropyl-4-(1H-tetrazol-5-yl)phenyl)-1H-pyrrolo[2,3-b]pyridin-2-yl)-4-methoxybenzyl)ethanamine] |  | 2.32 |  |  |
